The values that follow come from paper PMC9047515 (Biochemistry, 2022).

Each structure is given as a SMILES string. Read-outs that look alike come from different tables or passages of the source.

Common to all, as to assay: stopped-flow absorption titration
Type in all cases: binding

In assay [1] the target is T1, BesC (Streptantibioticus cattleyicolor, UniProt F8JJ25).
Assay [2] addresses T1, BesC. This is another data set of the same source.
The target in assay [3] is T1, BesC. The source holds these as a separate data set.

T1 sequence (F8JJ25 whole entry): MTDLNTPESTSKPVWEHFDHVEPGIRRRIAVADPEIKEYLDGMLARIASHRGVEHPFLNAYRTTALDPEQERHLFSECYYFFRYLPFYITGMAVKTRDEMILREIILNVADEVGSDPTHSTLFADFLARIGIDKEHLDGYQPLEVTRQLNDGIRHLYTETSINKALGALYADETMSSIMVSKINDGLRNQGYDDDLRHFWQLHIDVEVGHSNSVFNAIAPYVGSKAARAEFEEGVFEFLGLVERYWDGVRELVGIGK

One may read the Kd as a measure of binding affinity in units of concentration. Read a high Kd as a looser complex. As to `NCCSC[C@H](N)C(=O)O` [4-thia-L-Lys, S-(2-aminoethyl)-L-cysteine], in assay [1], the Kd is less than 30 µM. In assay [2], `N[C@@H](CCCCO)C(=O)O` [6-OH-L-Nle] came in with a Kd of 10000 ± 1000 µM. In turn, `NCCCC[C@H](N)C(=O)O` [L-Lys] came in with a Kd in assay [3] of 300 ± 100 µM.
